Assay [1] concerns Wild type Saccharomyces cerevisiae cells (strain BY4741). Put plainly: Growth of yeast cells in the presence or absence of VPA and/or NaCl (absorbance at 550 nm). It is filed as cell-based. The settings on record: single agent (VPA or NaCl) in synthetic medium, 30° C. As to the method: The combined effect of osmotic stress and valproate (VPA) is deleterious to yeast cells. Wild type Saccharomyces cerevisiae cells (strain BY4741) were grown in synthetic medium in the presence or absence of VPA and/or NaCl. Cells were incubated at 30° C., and growth was monitored spectrophotometrically by measuring absorbance at 550 nm.

For assay [2], the system named is Candida albicans (Strain Sc 5314). Put plainly: Hyphae formation in Candida cells, serum-induced (percentage of cells forming hyphal structures). It is filed as cell-based. The settings on record: in the presence of VPA. As to the method: Hyphae formation is at its peak after 3 hours of incubation at 37° C. at 200 rpm. An overnight culture of Candida albicans (Strain Sc 5314) was prepared using serum-free RPMI-64 medium. Cells were pelleted at 7,500×g and resuspended in RPMI-64 supplemented with 10% Fetal Bovine Serum (FBS) to induce hyphae formation. Cultures were incubated at 37° C. in a rotary shaker at 200 rpm. Samples were drawn out at one-hour intervals and observed for development of hyphal structures.
An overnight culture of C. albicans was prepared using serum-free RPMI-64 medium. Cells were pelleted at 7,500×g and resuspended in RPMI-64/10% FBS with or without 0.1M NaCl and/or 2 mM VPA as indicated. Cultures were incubated at 37° C. in a rotary shaker at 200 rpm for 3 hours. For each sample, 300-500 cells were counted and the percentage of cells forming hyphal structures was calculated. Values represent the mean of three independent experiments±S.E. (error bars).
An overnight culture of C. albicans was prepared using serum-free RPMI-64 medium. Cells were pelleted at 7,500×g and resuspended in RPMI-64/10% FBS with or without 0.1M sorbitol and/or 2 mM VPA as indicated. Cultures were incubated at 37° C. in a rotary shaker at 200 rpm for 3 hours. For each sample, 300-500 cells were counted and the percentage of cells forming hyphal structures was calculated. […]

Turning to `[Cl-].[Na+]` [NaCl, sodium chloride], the Growth decreased in assay [1] was 50%.

With `CCCC(CCC)C(=O)O` [VPA, Valproic acid (di-n-propyl acetic acid)], the Growth decreased in assay [1] came to 50%. For the same compound, the “Transformation of Candida yeast cells into hyphae forming cells” value in assay [2] is given as “greatly reduced”.

For the origin of these results see patent publication US10617659B2, “Valproate as a topical anti-fungal treatment” (Wayne State University, priority 2016, dated 2020).
